Test results from US10669266B2, “Oxadiazole inhibitors of HIPK2 for treating kidney fibrosis” (ICAHN SCHOOL OF MEDICINE AT MOUNT SINAI, priority 2017, dated 2020).

tested on: Smad3-responsive luciferase reporter (SBE4-Luc)
Method: Human primary tubular cells (PromoCell GmbH, Heidelberg, Germany) were cultured in Renal Epithelial Cell Growth Medium-2 (Promocell GmbH) with supplements according to manufacturer's protocol human primary renal tubular epithelial cells with <5 passages were used for all studies. For HIV infection of hRTECs, pNL4-3:ΔG/P-EGFP, a gag/poi-deleted HIV-1 construct that contains EGFP in the gag open reading frame, and pHR-IRES-EGFP, a control EGFP construct, were used to generate the VSV-G pseudotyped virus. Cells were infected with HIV pseudotyped virus or control virus for 2 days before the treatment with test compound.
Renilla luciferase reporter plasmid (pRL) was purchased from Promega.
Forty-eight hours post-transfection cells were treated with assigned concentrations of test compound together with or without 10 ng/ml TGF-β1 for 16 hours. Luciferase activities were measured using the Dual-Luciferase Reporter Assay kit (Promega, #E1910). Data are expressed as the ratio of firefly luciferase activity over Renilla luciferase activity. […] 48 hours after transfection, luciferase activities were measured.

SMILES	Luciferase Activity (Relative to DMSO control) −TGFβ
CCOC(=O)c1ccc(-c2noc(-c3cnc4cc(Cl)ccc4c3)n2)cc1 [Example 2]	0.660
COc1ccc2cc(-c3nc(-c4ccc(B5OC(C)(C)C(C)(C)O5)cc4)no3)cnc2c1 [Example 3, 5-(7-methoxyquinolin-3-yl)-3-(4-(4,4,5,5-tetramethyl-1,3,2-dioxaborolan-2-yl)phenyl)-1,2,4-oxadiazole]	0.730
COc1ccc2cc(-c3nc(-c4ccc([B-](F)(F)F)cc4)no3)cnc2c1 [Example 4]	0.366
CCOC(=O)c1ccc(-c2noc(-c3cnc4cc(Br)ccc4c3)n2)cc1 [Example 5, ethyl 4-(5-(7-bromoquinolin-3-yl)-1,2,4-oxadiazol-3-yl)benzoate]	0.512
CC1(C)OB(c2ccc3cc(-c4nc(-c5ccc(C(=O)O)cc5)no4)cnc3c2)OC1(C)C [Example 6, 4-(5-(7-(4,4,5,5-tetramethyl-1,3,2-dioxaborolan-2-yl)quinolin-3-yl)-1,2,4-oxadiazol-3-yl)benzoic acid]	0.722
COc1ccc2cc(-c3nc(-c4cccc(Br)n4)no3)cnc2c1 [Example 7]	0.784
CCOC(=O)c1ccc(-c2noc(-c3cnc4cc(B5OC(C)(C)C(C)(C)O5)ccc4c3)n2)cc1 [Example 8, ethyl 4-(5-(7-(4,4,5,5-tetramethyl-1,3,2-dioxaborolan-2-yl)quinolin-3-yl)-1,2,4-oxadiazol-3-yl)benzoate]	0.818
